# From US10849878B2 (OBSHCHESTVO S OGRANICHENNOY OTVETSTVENNOSTYU “NORMOFARM”, priority 2015, dated 2020)
# Tests used:
# rats = test: Porsolt helplessness test; type: in vivo, rat
# white Wistar rats = test: transport stress simulation test (shaker, 240 min); type: in vivo, rat; design: AST in blood serum / ALT in blood serum / Creatinine in blood serum: unit not given here
# Method: The anti-stress, anxiolytic and antidepressant effects of the claimed agent and compositions on its basis were determined as follows. […] The suspension test. Five animals from each group were used. Each animal was suspended for 24 hours. After that the sample of whole blood was taken from the sublingual vessels of that animal Then the animal was placed in a desiccator with diethyl ether. 60 minutes later a spinal decapitation of the animal was performed. The abdominal opening was performed and the number of ulcers on the inner surface of the stomach was counted. The obtained whole blood was placed in two test tubes. The whole blood was used to determine the number of eosinophils by the Duncker method. Serum was used to determine the biochemical composition of the blood. Adrenaline and norepinephrine were determined as biochemical indices. These characteristics are specific markers identifying the impact of stress factors of various etiologies. • 2. The transport stress simulation test. Five animals from each group were used. The animals were placed in cages fixed on a laboratory shutter. The duration of the test was 240 minutes. At the end of the test the animals were examined by the techniques described in paragraph 1. A sample of whole blood was taken to determine the number of eosinophils by the Duncker method. The blood serum was studied to measure the amount of enzymes: alanine aminotransferase (ALT), aspartate aminotransferase (AST), creatinine
# The tests were carried out on 2-month-old rats of the Wistar line. The groups were selected according to the principle of paired counterparts.
# During the course of the study the animals were selected from the formed groups of 10 animals each to participate in stress tests, 5 animals per test. The selection was made on the 7th, 14th, 21st day of the drug administration (experiments were performed on the same days right after selection). The animals were weighed weekly immediately before testing. The obtained data were processed by statistical methods of mathematical statistics. […] Water for injection produced by the “Bufus Novosibkhimpharm” was used as a solvent. The introduced volume was 1.5 ml. The solution was introduced at the same tine 2 hours after morning feeding. The first group was given water for injection by the same way. The volume of administration was 1.5 ml.
# The rotating universal Shaker Unimax 10 was used as a model for simulating transport stress. The rotation speed was chosen at 120 rpm for 240 min A cage with five animals was fixed on the site. The rats stayed in the cage in a free state. A change in the reaction of animals with prolonged administration of the drug was observed. The sampling and decapitation process is described in Example 1.
# Physiological, morphological and biochemical blood parametres were determined as markers of the impact of stress on animals, such as: individual and group behavior of animals, the number of enuresis acts, the number of defecation acts, and the number of excrement boluses; eosinophils in whole blood according to Duncker and the levels of ALT, AST enzymes and creatinine in the blood serum were measured.
# Transport stress is a striking example of technological effect on animal and human body. […] Thus, it suits best as an indicator for the observation of the classical example of the development of the adaptive syndrome by Selye. In the experiment, a simulation of the transport impact on the rats was performed with the help of the laboratory shutter. Progressive 4 hour-long circular vibrations adversely affected the animals. The rats in the control group were constantly moving, colliding with each other trying to concentrate in the corners, where the amplitude of the oscillation was the highest. At the same time the number of defecation acts was higher. The animals behaved aggressively. The stronger ones tried to push out a weaker animal out of the corner.
# [1] = 7 days after the dosing, LiAsc, LiCa 5 mg/kg, phenazepam 0.25 mg
# [2] = 7 days after the drug withdrawal, 5 mg/kg
# [3] = 28 days after the dosing, LiAsc, LiCa 5 mg/kg, phenazepam 0.25 mg
# [4] = 28 days after the drug withdrawal, 5 mg/kg
# [5] = 30 mg/kg solution by gastric tube, administration day 7
# [6] = 30 mg/kg solution by gastric tube, administration day 14
# [7] = 30 mg/kg solution by gastric tube, administration day 21
# [8] = 60 mg/kg in the form of pills with cocoa, administration day 7
# [9] = 60 mg/kg in the form of pills with cocoa, administration day 14
# [10] = 60 mg/kg in the form of pills with cocoa, administration day 21
# [11] = 60 mg/kg solution by gastric tube, administration day 7
# [12] = 60 mg/kg solution by gastric tube, administration day 14
# [13] = 60 mg/kg solution by gastric tube, administration day 21
# [14] = 120 mg/kg solution by gastric tube, administration day 7
# [15] = 120 mg/kg solution by gastric tube, administration day 14
# [16] = 120 mg/kg solution by gastric tube, administration day 21
compound,measurement,setting,value
O=C1O[C@H]([C@@H](O)CO)C([O-])=C1O.[Li+] [lithium ascorbate],Adrenalin,rats; [1],7.4 ± 1.4 µg/L
same,Duration of activity,rats; [1],356.4 ± 26.1 s
same,Duration of immobility,rats; [1],243.6 ± 17.6 s
same,Eosinophils (Dunger method) in mm^3,rats; [1],783.2 ± 24.7 in mm^3
same,Noradrenalin,rats; [1],19.9 ± 0.9 µg/L
same,Number of gastric ulcers,rats; [1],1.5 ± 0.6
same,Adrenalin,rats; [2],8.4 ± 0.9 µg/L
same,Duration of activity,rats; [2],472.6 ± 29.3 s
same,Duration of immobility,rats; [2],127.3 ± 19.7 s
same,Eosinophils (Dunger method) in mm^3,rats; [2],923.5 ± 64.2 in mm^3
same,Noradrenalin,rats; [2],18.3 ± 3.2 µg/L
same,Number of gastric ulcers,rats; [2],1.6 ± 0.9
same,Adrenalin,rats; [3],6.1 ± 0.6 µg/L
same,Duration of activity,rats; [3],506.4 ± 31.4 s
same,Duration of immobility,rats; [3],93.0 ± 19.3 s
same,Eosinophils (Dunger method) in mm^3,rats; [3],987.3 ± 34.8 in mm^3
same,Noradrenalin,rats; [3],15.6 ± 0.79 µg/L
same,Number of gastric ulcers,rats; [3],0.8 ± 0.2
same,Adrenalin,rats; [4],20.3 ± 9.3 µg/L
same,Duration of activity,rats; [4],221.1 ± 19.8 s
same,Duration of immobility,rats; [4],377.9 ± 86.4 s
same,Eosinophils (Dunger method) in mm^3,rats; [4],409.7 ± 37.9 in mm^3
same,Noradrenalin,rats; [4],38.9 ± 10.9 µg/L
same,Number of gastric ulcers,rats; [4],5.9 ± 0.4
same,ALT in blood serum,white Wistar rats; [5],29.8 ± 8.45
same,AST in blood serum,white Wistar rats; [5],91.7 ± 7.29
same,Creatinine in blood serum,white Wistar rats; [5],36.5 ± 3.84
same,Eosinophil count in whole blood,white Wistar rats; [5],794 ± 6.9
same,Number of boluses in defecation,white Wistar rats; [5],4.2 ± 0.4
same,ALT in blood serum,white Wistar rats; [6],32.1 ± 9.10
same,AST in blood serum,white Wistar rats; [6],109.9 ± 9.67
same,Creatinine in blood serum,white Wistar rats; [6],48.1 ± 3.82
same,Eosinophil count in whole blood,white Wistar rats; [6],921 ± 9.1
same,Number of boluses in defecation,white Wistar rats; [6],3.9 ± 0.4
same,ALT in blood serum,white Wistar rats; [7],31.7 ± 3.14
same,AST in blood serum,white Wistar rats; [7],121.2 ± 7.21
same,Creatinine in blood serum,white Wistar rats; [7],46.3 ± 3.26
same,Eosinophil count in whole blood,white Wistar rats; [7],928 ± 10.7
same,Number of boluses in defecation,white Wistar rats; [7],3.5 ± 0.3
same,ALT in blood serum,white Wistar rats; [8],22.7 ± 8.19
same,AST in blood serum,white Wistar rats; [8],68.8 ± 4.72
same,Creatinine in blood serum,white Wistar rats; [8],25.7 ± 4.30
same,Eosinophil count in whole blood,white Wistar rats; [8],528 ± 5.8
same,Number of boluses in defecation,white Wistar rats; [8],7.2 ± 1.5
same,ALT in blood serum,white Wistar rats; [9],34.8 ± 6.83
same,AST in blood serum,white Wistar rats; [9],119.7 ± 6.21
same,Creatinine in blood serum,white Wistar rats; [9],56.7 ± 6.44
same,Eosinophil count in whole blood,white Wistar rats; [9],938 ± 11.7
same,Number of boluses in defecation,white Wistar rats; [9],5.2 ± 0.9
same,ALT in blood serum,white Wistar rats; [10],35.0 ± 4.29
same,AST in blood serum,white Wistar rats; [10],121. ± 4.29
same,Creatinine in blood serum,white Wistar rats; [10],58.4 ± 9.30
same,Eosinophil count in whole blood,white Wistar rats; [10],947 ± 12.4
same,Number of boluses in defecation,white Wistar rats; [10],3.7 ± 0.3
same,ALT in blood serum,white Wistar rats; [11],31.0 ± 3.15
same,AST in blood serum,white Wistar rats; [11],97.9 ± 5.04
same,Creatinine in blood serum,white Wistar rats; [11],39.6 ± 7.98
same,Eosinophil count in whole blood,white Wistar rats; [11],822 ± 8.7
same,Number of boluses in defecation,white Wistar rats; [11],4.6 ± 0.4
same,ALT in blood serum,white Wistar rats; [12],33.1 ± 2.84
same,AST in blood serum,white Wistar rats; [12],112.4 ± 6.23
same,Creatinine in blood serum,white Wistar rats; [12],48.3 ± 8.27
same,Eosinophil count in whole blood,white Wistar rats; [12],919 ± 4.1
same,Number of boluses in defecation,white Wistar rats; [12],3.9 ± 0.4
same,ALT in blood serum,white Wistar rats; [13],32.4 ± 6.37
same,AST in blood serum,white Wistar rats; [13],115.5 ± 8.97
same,Creatinine in blood serum,white Wistar rats; [13],45.6 ± 2.73
same,Eosinophil count in whole blood,white Wistar rats; [13],922 ± 9.3
same,Number of boluses in defecation,white Wistar rats; [13],3.7 ± 0.7
same,ALT in blood serum,white Wistar rats; [14],32.4 ± 7.75
same,AST in blood serum,white Wistar rats; [14],107.1 ± 6.20
same,Creatinine in blood serum,white Wistar rats; [14],39.8 ± 6.13
same,Eosinophil count in whole blood,white Wistar rats; [14],856 ± 4.2
same,Number of boluses in defecation,white Wistar rats; [14],5.0 ± 1.1
same,ALT in blood serum,white Wistar rats; [15],31.7 ± 7.32
same,AST in blood serum,white Wistar rats; [15],110.3 ± 7.41
same,Creatinine in blood serum,white Wistar rats; [15],47.8 ± 1.46
same,Eosinophil count in whole blood,white Wistar rats; [15],901 ± 16.8
same,Number of boluses in defecation,white Wistar rats; [15],4.1 ± 1.1
same,ALT in blood serum,white Wistar rats; [16],30.1 ± 7.42
same,AST in blood serum,white Wistar rats; [16],118.7 ± 4.48
same,Creatinine in blood serum,white Wistar rats; [16],42.1 ± 2.97
same,Eosinophil count in whole blood,white Wistar rats; [16],907 ± 4.3
same,Number of boluses in defecation,white Wistar rats; [16],4.0 ± 1.0
